Measured values as given in patent US20050137251A1, “Dexanabinol and dexanabinol analogs regulate inflammation related genes” (priority 2002, published 2005).

Legend:
[1] = system: MPTP model of neurodegeneration; assay: MPTP long-term model: rotarod functional outcome and mortality; type: in vivo, mice
Description: The mice (C57/BL male mice, average weight 30 g, Harlan, Israel) were administered i.p. with MPTP (Sigma, USA) (40 mg/kg, 5 ml/kg) in saline (Teva Medical, Israel) at 2 weeks interval for four times. The test compounds and controls were injected i.p. once just before the first MPTP administration at a volume dose of 5 ml/kg. Dexanabinol was tested at 20 mg/kg and PRS-211,220 was tested at 5 mg/kg. Each treatment group was composed of at least fourteen animals.
Seven days following each MPTP injection, the animals were submitted to a functional test using the rotarod apparatus as described by Rozas et al. (Rozas G. et al., J. of Neuroscience Methods 83: 165-75, 1998). The performance of the animals in the rotarod system, which measures overall locomotor ability, reflects their ability to achieve functions generally affected in PD. The animals were trained for 4 days before beginning the experiment. Their task was to stay on the accelerating rod without falling for 12 minutes (3 minutes at each speed). The tested speeds were: 15, 19, 23 and 27 rpm. Animal performance on the rod was scored as follows: each animal could obtain a maximum of 3 points (1 for each minute) for full walking on the rod at each speed. […]
Another parameter that was measured in this experiment is mortality, which was relatively high in this model.

COX-2 gene expression = COX-2 gene expression in activated Jurkat T cells; type: cell-based, human; settings: 10 μM, normalized to GAPDH
Description: II reverse transcriptase (Life Technologies).
The human acute lymphoma T cell line Jurkat (ATCC # TIB 152) was used to test the possible immunosuppressive effect of dexanabinol and its analogs on T cell activation. The Jurkat cells were grown in RPMI 1640 medium with 2 mM L-glutamine adjusted to contain 1.5 g/L sodium bicarbonate, 4.5 g/L glucose, 10 mM HEPES, 1.0 mM sodium pyruvate, and 10% heat inactivated fetal bovine serum. Cells were grown in tissue culture flasks and seeded at appropriate density into 24 wells tissue culture plates. 2×10^6 cells in one milliliter were stimulated using 10 ng/ml of PMA (Sigma) and 1 μM A23187 calcium ionophore (Sigma). […] The controls and test compounds were added at indicated concentrations one hour before stimulation.
In addition, we used this experimental system to test the impact of dexanabinol and its analogs on COX-2 gene expression. Following activation of Jurkat cells with PMA and calcium ionophore we obtained elevated COX-2 gene expression levels. The impact of the test compounds on COX-2 was assessed as previously described for IL-2. FIG. 2 depicts the results of this experiment as fold activation of COX-2 over non-activated T cells. The results are plotted after normalization to GAPDH expression. […]

[2] = system: activated microglia cells; assay: Activated microglia (F4/80 immunohistochemistry) in hippocampus of LPS injected mice brains; type: in vivo; settings: 20 mg/kg, 72 hours after LPS
Description: The local i.c.v. injection of LPS in mice brain stimulates a wide range of inflammatory responses and cascades where various cytokines and chemokines are implicated. Following the results obtained in examples 3 and 4, we decided to assess the effect of additional active compounds of the invention on other genes involved in the inflammatory response. Specifically, we tested the impact of dexanabinol and PRS-211,092, both at 20 mg/kg, on the expression of pro-inflammatory IL-1β cytokine. The protocol was basically as previously described with minor modifications. The amount of LPS injected in the mice brain was raised to 250 ng and the animals were sacrificed 24 hours after LPS and treatment injection for mRNA analysis, carried out as previously described. Moreover, some animals were kept alive and sacrificed 72 hours after LPS and treatment injection for immunohistochemical analysis. For this purpose, after euthanizing the animals by injecting i.p. 100 mg/kg of sodium pentobarbitone, brains were removed and fixed in 4% formaldehyde for at least 72 hours. Brains were then washed with PBS and transferred for cryoprotection in a solution of 30% sucrose in PBS, until they sank. […] Quantitative analysis was carried out by counting the number of immunoreactive cells/mm^2 at the level of the hippocampus.

recombinant COX-2 = recombinant COX-2 (Homo sapiens, UniProt P35354); assay: In vitro enzymatic activity of recombinant COX-2 (PGF2α EIA); type: biochemical; settings: purified COX-2, test compounds up to 10 μM, 5 min preincubation, substrate AA
IL-2 gene expression = IL-2 gene expression in Jurkat T cells activated with PMA and calcium ionophore; type: cell-based, human; settings: 10 μM, RNA 6 hrs after activation
Description: The human acute lymphoma T cell line Jurkat (ATCC # TIB 152) was used to test the possible immunosuppressive effect of dexanabinol and its analogs on T cell activation. […] 2×10^6 cells in one milliliter were stimulated using 10 ng/ml of PMA (Sigma) and 1 μM A23187 calcium ionophore (Sigma). […] The controls and test compounds were added at indicated concentrations one hour before stimulation.
The results are plotted after normalization to cyclophilin A expression.

recombinant COX-2, sequence (P35354 18-604): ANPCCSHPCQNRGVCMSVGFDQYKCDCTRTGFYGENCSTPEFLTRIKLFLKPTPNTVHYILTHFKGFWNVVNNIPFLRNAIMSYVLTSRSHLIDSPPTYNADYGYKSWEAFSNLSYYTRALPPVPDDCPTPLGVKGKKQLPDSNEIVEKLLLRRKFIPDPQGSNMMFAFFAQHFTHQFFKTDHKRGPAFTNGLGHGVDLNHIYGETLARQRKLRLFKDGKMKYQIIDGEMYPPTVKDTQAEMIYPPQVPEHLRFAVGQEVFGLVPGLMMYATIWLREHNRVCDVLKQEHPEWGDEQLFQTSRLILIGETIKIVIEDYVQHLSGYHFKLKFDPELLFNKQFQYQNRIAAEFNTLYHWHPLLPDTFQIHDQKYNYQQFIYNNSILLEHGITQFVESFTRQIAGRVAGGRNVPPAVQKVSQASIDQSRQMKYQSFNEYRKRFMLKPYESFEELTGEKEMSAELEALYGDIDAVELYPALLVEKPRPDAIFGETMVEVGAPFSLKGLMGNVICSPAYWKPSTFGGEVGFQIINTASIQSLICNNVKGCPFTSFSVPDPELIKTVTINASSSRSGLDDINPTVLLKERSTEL

CCCCCCC(C)(C)c1cc(O)c2c(c1)OC(C)(C)[C@H]1CC=C(CO)C[C@H]21 [dexanabinol, 1,1-dimethylheptyl-(3S,4S)-7-hydroxy-Δ^6-tetrahydrocannabinol]
Rotarod functional outcome vs vehicle ([1]; 20 mg/kg i.p., fourth session): positive trend | Mortality ([1]; 20 mg/kg, MPTP only 69%): 11% | Inhibition of COX-2 gene expression (COX-2 gene expression): 88% | Reduction of the amount of activated microglia vs vehicle [2]: 40% | Inhibition of COX-2 enzymatic activity (recombinant COX-2): no inhibitory effect | Reduction of IL-2 fold of activation (IL-2 gene expression): 41%
